Test results: patent US7345067B2, “Aniline derivatives, their manufacture and use as pharmaceutical agents” (Hoffmann-La Roche Inc., priority 2003, dated 2008)

Tests used:
PPARγ = target: T1, PPARγ (Mus musculus, UniProt P37238); assay: Radioligand binding assay (SPA), PPARγ receptor binding; settings: GST-PPARγ-LBD fusion protein
T1 construct: PPARγ (aa 174 to 476); made in house; host or cells: E. coli BL21 (pLysS)
T1 sequence (P37238 204-505): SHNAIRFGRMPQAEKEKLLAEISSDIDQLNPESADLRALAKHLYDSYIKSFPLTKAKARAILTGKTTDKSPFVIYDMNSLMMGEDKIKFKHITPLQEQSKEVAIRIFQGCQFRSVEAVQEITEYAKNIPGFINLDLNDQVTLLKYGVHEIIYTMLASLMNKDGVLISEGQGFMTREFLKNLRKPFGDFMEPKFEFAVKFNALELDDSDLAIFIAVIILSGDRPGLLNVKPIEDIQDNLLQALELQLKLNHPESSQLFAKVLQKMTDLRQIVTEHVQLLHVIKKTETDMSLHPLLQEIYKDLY
Description: (§1) Background information on the performed assays can be found in: Nichols J S et al. “Development of a scintillation proximity assay for peroxisome proliferator-activated receptor gamma ligand binding domain”, (1998) Anal. Biochem. 257: 112-119.
(§2) Full-length cDNA clones for humans PPARδ and PPARα and mouse PPARγ were obtained by RT-PCR from human adipose and mouse liver cRNA, respectively, cloned into plasmid vectors and verified by DNA sequencing. Bacterial and mammalian expression vectors were constructed to produce glutathione-s-transferase (GST) and Gal4 DNA binding domain proteins fused to the ligand binding domains (LBD) of PPARδ (aa 139 to 442), PPARγ (aa 174 to 476) and PPARα (aa 167 to 469). To accomplish this, the portions of the cloned sequences encoding the LBDs were amplified from the full-length clones by PCR and then subcloned into the plasmid vectors. Final clones were verified by DNA sequence analysis.
(§3) Induction, expression, and purification of GST-LBD fusion proteins were performed in E. coli strain BL21 (pLysS) cells by standard methods (Ref: Current Protocols in Molecular Biology, Wiley Press, edited by Ausubel et al.).
(§4) PPARγ receptor binding was assayed in TKE50 (50 mM Tris-HCl, pH 8, 50 mM KCl, 2 mM EDTA, 0.1 mg/ml fatty acid-free BSA and 10 mM DTT). For each 96 well reaction an 140 ng equivalent of GST-PPARγ-LBD fusion protein was bound to 10 μg SPA beads (PharmaciaAmersham) in a final volume of 50 ul by shaking. The resulting slurry was incubated for 1 h at RT and centrifuged for 2 min at 1300 g. The supernatant containing unbound protein was removed and the semidry pellet containing the receptor-coated beads was resolved in 50 ul of TKE. For radioligand binding e.g. 10000 dpm 2(S)-(2-benzoyl-phenylamino)-3-{4-[1,1-ditritio-2-(5-methyl-2-phenyl-oxazol-4-yl)-ethoxy]-phenyl}-propionic acid in 50 μl were added, the reaction incubated at RT for 1 h and scintillation proximity counting performed. All binding assays were performed in 96 well plates and the amount of bound ligand measured on a Packard TopCount using OptiPlates (Packard). Nonspecific binding was determined in the presence of 10^−4 M unlabelled compound. Dose response curves were done in triplicates within a range of concentration from 10^−10 M to 10^−4 M.

PPARδ = target: T2, PPARδ (Homo sapiens, UniProt Q03181); assay: Radioligand binding assay (SPA), PPARδ receptor binding; settings: GST-PPARδ-LBD fusion protein
T2 construct: PPARδ (aa 139 to 442); made in house; host or cells: E. coli BL21 (pLysS)
T2 sequence (Q03181 139-441 limits assumed): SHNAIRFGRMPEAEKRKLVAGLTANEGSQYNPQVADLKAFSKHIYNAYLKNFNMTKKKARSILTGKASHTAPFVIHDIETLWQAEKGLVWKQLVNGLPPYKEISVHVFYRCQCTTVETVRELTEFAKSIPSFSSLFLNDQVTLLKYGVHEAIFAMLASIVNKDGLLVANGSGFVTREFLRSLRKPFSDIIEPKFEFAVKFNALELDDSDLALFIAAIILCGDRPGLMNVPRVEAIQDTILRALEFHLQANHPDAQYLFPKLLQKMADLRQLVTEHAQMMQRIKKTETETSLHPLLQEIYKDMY
Description: as §1, §2, §3
PPARδ receptor binding was assayed in HNM10 (50 mM Hepes, pH 7.4, 10 mM NaCl, 5 mM MgCl2, 0.15 mg/ml fatty acid-free BSA and 15 mM DTT). For each 96 well reaction a 500 ng equivalent of GST-PPARδ-LBD fusion protein and radioligand, e.g. 20000 dpm {2-methyl-4-[4-methyl-2-(4-trifluoromethyl-phenyl)-thiazol-5-yl-ditritiomethylsulfanyl]-phenoxy}-acetic acid, was bound to 10 μg SPA beads (PharmaciaAmersham) in a final volume of 50 μl by shaking. The resulting slurry was incubated for 1 h at RT and centrifuged for 2 min at 1300 g. The supernatant containing unbound protein was removed and the semidry pellet containing the receptor-coated beads was resuspended in 50 ul of HNM. Radioligand was added and the reaction incubated at RT for 1 h and scintillation proximity counting performed in the presence of test compounds was determined. All binding assays were performed in 96 well plates and the amount of bound ligand was measured on a Packard TopCount using OptiPlates (Packard). Dose response curves were done in triplicates within a range of concentration from 10^−10 M to 10^−4 M.

PPARα = target: T3, PPARα (Homo sapiens, UniProt Q07869); assay: Radioligand binding assay (SPA), PPARα receptor binding; settings: GST-PPARα-LBD fusion protein
T3 construct: PPARα (aa 167 to 469); made in house; host or cells: E. coli BL21 (pLysS)
T3 sequence (Q07869 167-468 limits assumed): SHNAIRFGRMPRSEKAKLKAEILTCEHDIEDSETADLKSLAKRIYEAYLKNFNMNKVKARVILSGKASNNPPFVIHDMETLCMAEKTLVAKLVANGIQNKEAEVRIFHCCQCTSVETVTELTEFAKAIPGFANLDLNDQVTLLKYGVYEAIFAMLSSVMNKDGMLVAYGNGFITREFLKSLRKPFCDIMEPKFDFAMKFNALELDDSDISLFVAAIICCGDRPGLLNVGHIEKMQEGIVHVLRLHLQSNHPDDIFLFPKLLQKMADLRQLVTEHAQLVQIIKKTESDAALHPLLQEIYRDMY
Description: as §1, §2, §3
as §4, with “PPARα receptor” for “PPARγ receptor”, “of GST-PPARα-LBD” for “of GST-PPARγ-LBD”, “50 μl” for “50 ul”, “dpm of 2(S)-(2-benzoyl-phenylamino)-3-{4-[1,1-d]tritio-2-(5-methyl-2-phenyl-oxazol-4-yl)-ethoxy]-phenyl}-propionic acid or 2,3-ditritio-2(S)-methoxy-3-{4-[2-(5-methyl-2-phenyl-oxazol-4-yl)-ethoxy]-benzo[b]thiophen-7-yl}-propionic” for “dpm 2(S)-(2-benzoyl-phenylamino)-3-{4-[1,1-ditritio-2-(5-methyl-2-phenyl-oxazol-4-yl)-ethoxy]-phenyl}-propionic”, “50 ul” for “50 μl”

| SMILES | IC50 (PPARγ) [µM] | melting point | IC50 (PPARδ) [nM] | IC50 (PPARα) [nM] |
| --- | --- | --- | --- | --- |
| Cc1cc(N(C)Cc2sc(-c3ccc(C(F)(F)F)cc3)nc2C)ccc1OCC(=O)O [Example 1.6, (2-Methyl-4-{methyl-[4-methyl-2-(4-trifluoromethyl-phenyl)-thiazol-5-ylmethyl]-amino}-phenoxy)-acetic acid] | > 10 | 146 to 149 °C (dec.) | 17.7 | 1750 |
| Cc1nc(-c2ccc(C(F)(F)F)cc2)sc1CN(C)c1ccc(OCC(=O)O)c(Cl)c1 [Example 4.6, (2-Chloro-4-{methyl-[4-methyl-2-(4-trifluoromethyl-phenyl)-thiazol-5-ylmethyl]-amino}-phenoxy)-acetic acid] | > 10 | 149 to 150 °C (dec.) | 21 | 412 |
| Cc1nc(-c2ccc(C(F)(F)F)cc2)sc1CN(C)c1ccc(OCC(=O)O)c(F)c1 [Example 5.7, (2-Fluoro-4-{methyl-[4-methyl-2-(4-trifluoromethyl-phenyl)-thiazol-5-ylmethyl]-amino}-phenoxy)-acetic acid] | > 10 | 113 to 114 °C | 49.8 | 1060 |
| Cc1nc(-c2ccc(C(F)(F)F)cc2)sc1CN(C)c1ccc(OCC(=O)O)c(C(F)(F)F)c1 [Example 6.8, (4-{Methyl-[4-methyl-2-(4-trifluoromethyl-phenyl)-thiazol-5-ylmethyl]-amino}-2-trifluoromethyl-phenoxy)-acetic acid] | > 10 | 180 to 181 °C | 16.2 | 463 |
| CCc1cc(N(C)Cc2sc(-c3ccc(C(F)(F)F)cc3)nc2C)ccc1OCC(=O)O [Example 7.8, (2-Ethyl-4-{methyl-[4-methyl-2-(4-trifluoromethyl-phenyl)-thiazol-5-ylmethyl]-amino}-phenoxy)-acetic acid] | 2.21 | 142 to 143 °C (dec.) | 10.1 | 308 |
| COc1cc(N(C)Cc2sc(-c3ccc(C(F)(F)F)cc3)nc2C)ccc1OCC(=O)O [Example 8.7, (2-Methoxy-4-{methyl-[4-methyl-2-(4-trifluoromethyl-phenyl)-thiazol-5-ylmethyl]-amino}-phenoxy)-acetic acid] | – | 129 to 131 °C (dec.) | – | – |
| COCCCc1cc(N(C)Cc2sc(-c3ccc(C(F)(F)F)cc3)nc2C)ccc1OCC(=O)O [Example 13.10, (2-(3-Methoxy-propyl)-4-{methyl-[4-methyl-2-(4-trifluoromethyl-phenyl)-thiazol-5-ylmethyl]-amino}-phenoxy)-acetic acid] | > 10 | 142 to 143 °C | 34 | 3960 |
| Cc1cc(N(C)Cc2oc(-c3ccc(C(F)(F)F)cc3)nc2C)ccc1OCC(=O)O [Example 14, (2-Methyl-4-{methyl-[4-methyl-2-(4-trifluoromethyl-phenyl)-oxazol-5-ylmethyl]-amino}-phenoxy)-acetic acid] | – | 156 to 157 °C | – | – |
| CCN(Cc1sc(-c2ccc(C(F)(F)F)cc2)nc1C)c1cc(C)c(OCC(=O)O)c(C)c1 [Example 15.5, (4-{Ethyl-[4-methyl-2-(4-trifluoromethyl-phenyl)-thiazol-5-ylmethyl]-amino}-2,6-dimethyl-phenoxy)-acetic acid] | – | 161 to 162 °C | – | – |
| Cc1cc(N(C)Cc2oc(-c3ccc(C(F)(F)F)cc3)nc2C)cc(C)c1OCC(=O)O [Example 16.4, (2,6-Dimethyl-4-{methyl-[4-methyl-2-(4-trifluoromethyl-phenyl)-oxazol-5-ylmethyl]-amino}-phenoxy)-acetic acid] | – | 122 to 123 °C | – | – |
| Cc1cc(NCc2sc(-c3ccc(C(F)(F)F)cc3)nc2C)ccc1OCC(=O)O [Example 18.3, (2-Methyl-4-{[4-methyl-2-(4-trifluoromethyl-phenyl)-thiazol-5-ylmethyl]-amino}-phenoxy)-acetic acid] | – | 201 to 203 °C (dec.) | – | – |
| CCN(Cc1sc(-c2ccc(C(F)(F)F)cc2)nc1C)c1ccc(OCC(=O)O)c(C)c1 [Example 19.2, (4-{Ethyl-[4-methyl-2-(4-trifluoromethyl-phenyl)-thiazol-5-ylmethyl]-amino}-2-methyl-phenoxy)-acetic acid] | – | 147 to 154 °C (dec.) | – | – |
| Cc1nc(-c2ccc(C(F)(F)F)cc2)sc1CN(C)c1ccc(OCC(=O)O)c(I)c1 [Example 20.8, (2-Iodo-4-{methyl-[4-methyl-2-(4-trifluoromethyl-phenyl)-thiazol-5-ylmethyl]-amino}-phenoxy)-acetic acid] | – | 172.5 to 173 °C | – | – |
